Measured values published in publication PMC10896213, “Identification of the KIF18A alpha-4 helix as a therapeutic target for chromosomally unstable tumor cells” (Frontiers in Molecular Biosciences, 2023).

Biological target: T1, KIF18A (Homo sapiens, UniProt Q8NI77)
T1 construct: KIF18A (1−417); with pig microtubules (tubulin)
T1 sequence (Q8NI77 1-417): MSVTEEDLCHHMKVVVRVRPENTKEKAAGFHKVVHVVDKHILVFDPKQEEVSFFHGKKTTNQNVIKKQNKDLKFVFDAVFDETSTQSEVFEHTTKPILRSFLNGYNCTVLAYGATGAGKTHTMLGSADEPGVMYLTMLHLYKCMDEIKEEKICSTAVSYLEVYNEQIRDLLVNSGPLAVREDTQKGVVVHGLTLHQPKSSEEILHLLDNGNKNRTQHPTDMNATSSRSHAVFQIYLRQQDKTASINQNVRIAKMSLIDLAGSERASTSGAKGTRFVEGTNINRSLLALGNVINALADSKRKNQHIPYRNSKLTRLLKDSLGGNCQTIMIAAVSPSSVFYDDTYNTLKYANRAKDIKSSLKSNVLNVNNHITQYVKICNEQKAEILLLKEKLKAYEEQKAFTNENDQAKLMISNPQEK
Assay: microtubule-stimulated ATPase assay (ADP-Glo)
Type: biochemical

## Cc1cc(NC(=O)c2cnc(NS(=O)(=O)CCO)cc2N2CCC3(CC2)CC3)nc(N2CCC(F)(F)CC2)n1 [Compound 3]
  IC50: 8.2 nM
